This is an account of results in patent US20260347338A1, “PYRIMIDINE/PYRIDINE DERIVATIVES OR SALTS THEREOF AND PHARMACEUTICAL COMPOSITIONS COMPRISING THE SAME” (YUHAN CORPORATION, priority 2023, published 2026).

Molecules are shown by their SMILES. Counter-ions that a name gives are not always drawn.

This assay concerns the target T1, human recombinant HPK1 (Homo sapiens, UniProt Q92918).
T1 construct: purchased BPS Bioscience
The experiment in a line: Inhibitory activity against human recombinant HPK1 (TR-FRET). It counts as biochemical. The conditions noted are these: ULight-p70S6K peptide, ATP at Km, room temperature, 1 hour, 0.32 to 1000 nM compound. A digest of the protocol: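 IC50 classes A–D use 10, 50 and 100 nM cut-offs, derived from TR-FRET signal inhibition relative to DMSO controls. Human recombinant HPK1 phosphorylated ULight-p70S6K peptide at Km ATP for 1 h, room temperature, pH 7.4; test range 0.32–1000 nM final, detection with Eu-labelled antibody after EDTA quench.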

T1 sequence (Q92918 whole entry): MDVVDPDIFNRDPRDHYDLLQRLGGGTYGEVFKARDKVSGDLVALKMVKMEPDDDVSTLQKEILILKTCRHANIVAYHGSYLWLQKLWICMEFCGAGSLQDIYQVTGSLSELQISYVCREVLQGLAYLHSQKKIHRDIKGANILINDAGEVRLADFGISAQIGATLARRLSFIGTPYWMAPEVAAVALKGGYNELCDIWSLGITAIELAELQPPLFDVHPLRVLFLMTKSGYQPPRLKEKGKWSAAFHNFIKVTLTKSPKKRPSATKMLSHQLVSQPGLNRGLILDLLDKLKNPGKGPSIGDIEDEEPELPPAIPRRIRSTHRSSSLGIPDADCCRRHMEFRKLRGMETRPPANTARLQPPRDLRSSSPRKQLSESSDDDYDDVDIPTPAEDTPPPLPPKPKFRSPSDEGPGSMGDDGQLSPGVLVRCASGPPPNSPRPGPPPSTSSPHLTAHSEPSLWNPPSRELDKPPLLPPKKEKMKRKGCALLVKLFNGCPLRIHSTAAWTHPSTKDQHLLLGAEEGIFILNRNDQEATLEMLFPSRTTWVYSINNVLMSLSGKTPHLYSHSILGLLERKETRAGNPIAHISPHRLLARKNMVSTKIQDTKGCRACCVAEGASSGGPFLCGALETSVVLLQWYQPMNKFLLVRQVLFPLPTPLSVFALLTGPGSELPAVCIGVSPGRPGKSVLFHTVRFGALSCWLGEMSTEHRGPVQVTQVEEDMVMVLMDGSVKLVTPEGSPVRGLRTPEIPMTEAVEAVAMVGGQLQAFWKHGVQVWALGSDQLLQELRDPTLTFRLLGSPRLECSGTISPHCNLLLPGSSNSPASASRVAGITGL

Regarding `CNC(=O)c1cc(F)c(-c2nccc(Nc3cc(N4CCC[C@H](N)C4)c(-c4cnn(C(F)F)c4)cn3)n2)c(OC)c1` [Example 186, (S)-4-(4-((4-(3-aminopiperidin-1-yl)-5-(1-(difluoromethyl)-1H-pyrazol-4-yl)pyridin-2-yl)amino)pyrimidin-2-yl)-3-fluoro-5-methoxy-N-methylbenzamide hydrochloride], the IC50 (as a rule, the concentration needed to halve the response being measured) was not above 10 nM.

As to `COc1cc(C(=O)N(C)C)cc(F)c1-c1nccc(Nc2cc(N3CCC[C@H](N)C3)c(-c3cnn(C(F)F)c3)cn2)n1` [Example 187, (S)-4-(4-((4-(3-aminopiperidin-1-yl)-5-(1-(difluoromethyl)-1H-pyrazol-4-yl)pyridin-2-yl)amino)pyrimidin-2-yl)-3-fluoro-5-methoxy-N,N-dimethylbenzamide hydrochloride], the IC50 was not above 10 nM. On to `OC1CN(Cc2csc(-c3nccc(Nc4cc(N5CCC[C@H](O)C5)c(-c5cnn(C6CCOCC6)c5)cn4)n3)c2)C1` [Example 188, (S)-1-(2-((2-(4-((3-hydroxyazetidin-1-yl)methyl)thiophen-2-yl)pyrimidin-4-yl)amino)-5-(1-(tetrahydro-2H-pyran-4-yl)-1H-pyrazol-4-yl)pyridin-4-yl)piperidin-3-ol], for which the IC50 was 10 to 50 nM. For `COc1cc(C=O)cc(F)c1-c1nccc(Nc2cc(N3CCC[C@H](O)C3)c(-c3cnn(C4CCOCC4)c3)cn2)n1` [Example 189, (S)-3-fluoro-4-(4-((4-(3-hydroxypiperidin-1-yl)-5-(1-(tetrahydro-2H-pyran-4-yl)-1H-pyrazol-4-yl)pyridin-2-yl)amino)pyrimidin-2-yl)-5-methoxybenzaldehyde] the value was not above 10 nM; for `CNCc1cc(F)c(-c2nccc(Nc3cc(N4CCC[C@H](O)C4)c(-c4cnn(C5CCOCC5)c4)cn3)n2)c(OC)c1` [Example 190, (S)-1-(2-((2-(2-fluoro-6-methoxy-4-((methylamino)methyl)phenyl)pyrimidin-4-yl)amino)-5-(1-(tetrahydro-2H-pyran-4-yl)-1H-pyrazol-4-yl)pyridin-4-yl)piperidin-3-ol], not above 10 nM; for `COc1cccc(F)c1-c1nc(Nc2cc(N3CCC[C@H](O)C3)c(C(N)=O)cn2)ccc1[N+](=O)[O-]` [Example 191, 6-((6-(2-fluoro-6-methoxyphenyl)-5-nitropyridin-2-yl)amino)-4-((S)-3-hydroxypiperidin-1-yl)nicotinamide], not above 10 nM. For `COc1cccc(F)c1-c1nccc(Nc2cc(N3CCC[C@H](O)C3)c(C(=O)N[C@@H]3CCN(C)C3)cn2)n1` [Example 192, 6-((2-(2-fluoro-6-methoxyphenyl)pyrimidin-4-yl)amino)-4-((S)-3-hydroxypiperidin-1-yl)-N-((R)-1-methylpyrrolidin-3-yl)nicotinamide], the half-maximal inhibitory concentration (IC50) lay in the range of 10 to 50 nM. For the compound `COc1cccc(F)c1-c1nc(Nc2cc(N3CCC[C@H](O)C3)c(C(N)=O)cn2)ccc1N` [Example 193, 6-((5-amino-6-(2-fluoro-6-methoxyphenyl)pyridin-2-yl)amino)-4-((S)-3-hydroxypiperidin-1-yl)nicotinamide], the IC50 is not above 10 nM. For the compound `COc1cccc(F)c1-c1nc(Nc2cc(N3CCC[C@H](O)C3)c(C(=O)N[C@@H]3CC[C@@H](O)C3)cn2)ccc1[N+](=O)[O-]` [Example 194, 6-((6-(2-fluoro-6-methoxyphenyl)-5-nitropyridin-2-yl)amino)-N-((1R,3R)-3-hydroxycyclopentyl)-4-((S)-3-hydroxypiperidin-1-yl)nicotinamide], the IC50 was not above 10 nM. Regarding `COc1cccc(F)c1-c1nc(Nc2cc(N3CCC[C@H](O)C3)c(C(=O)NC3CC(O)C3)cn2)ccc1[N+](=O)[O-]` (stereo partly drawn) [Example 196, 6-((6-(2-fluoro-6-methoxyphenyl)-5-nitropyridin-2-yl)amino)-N-(3-hydroxycyclobutyl)-4-((S)-3-hydroxypiperidin-1-yl)nicotinamide], the half-maximal inhibitory concentration (IC50) is not above 10 nM. Then `COc1cccc(F)c1-c1nc(Nc2cc(N3CCC[C@H](O)C3)c(C(=O)N[C@@H]3CC[C@H]3O)cn2)ccc1[N+](=O)[O-]` [Example 197, 6-((6-(2-fluoro-6-methoxyphenyl)-5-nitropyridin-2-yl)amino)-N-((1R,2R)-2-hydroxycyclobutyl)-4-((S)-3-hydroxypiperidin-1-yl)nicotinamide], with not above 10 nM; and `COc1cccc(F)c1-c1nc(Nc2cc(N3CCC[C@H](O)C3)c(C(=O)NC3CC(F)(F)C3)cn2)ccc1[N+](=O)[O-]` [Example 198, N-(3,3-difluorocyclobutyl)-6-((6-(2-fluoro-6-methoxyphenyl)-5-nitropyridin-2-yl)amino)-4-((S)-3-hydroxypiperidin-1-yl)nicotinamide], with not above 10 nM.

On to `COc1cccc(F)c1-c1nc(Nc2cc(N3CCC[C@H](O)C3)c(C(=O)N[C@@H]3CC[C@@H](N)C3)cn2)ccc1[N+](=O)[O-]` [Example 199, N-((1R,3R)-3-aminocyclopentyl)-6-((6-(2-fluoro-6-methoxyphenyl)-5-nitropyridin-2-yl)amino)-4-((S)-3-hydroxypiperidin-1-yl)nicotinamide hydrochloride], for which the IC50 is not above 10 nM.

As to `COc1cccc(F)c1-c1nc(Nc2cc(N3CCC[C@H](O)C3)c(C(=O)N[C@@H]3CC[C@H](N)C3)cn2)ccc1[N+](=O)[O-]` [Example 200, N-((1R,3S)-3-aminocyclopentyl)-6-((6-(2-fluoro-6-methoxyphenyl)-5-nitropyridin-2-yl)amino)-4-((S)-3-hydroxypiperidin-1-yl)nicotinamide], the half-inhibitory concentration (IC50) is not above 10 nM. Take `COc1cccc(F)c1-c1nc(Nc2cc(N3CCC[C@H](O)C3)c(C(=O)N[C@@H]3CC[C@@H](O)C3)cn2)ccc1N` [Example 201, 6-((5-amino-6-(2-fluoro-6-methoxyphenyl)pyridin-2-yl)amino)-N-((1R,3R)-3-hydroxycyclopentyl)-4-((S)-3-hydroxypiperidin-1-yl)nicotinamide]: the IC50 is not above 10 nM.

Turning to `COc1cccc(F)c1-c1nc(Nc2cc(N3CCC[C@H](O)C3)c(C(=O)N[C@@H]3CC[C@H](O)C3)cn2)ccc1N` [Example 202, 6-((5-amino-6-(2-fluoro-6-methoxyphenyl)pyridin-2-yl)amino)-N-((1R,3S)-3-hydroxycyclopentyl)-4-((S)-3-hydroxypiperidin-1-yl)nicotinamide], the IC50 is not above 10 nM. Then `COc1cccc(F)c1-c1nc(Nc2cc(N3CCC[C@H](O)C3)c(C(=O)N[C@@H]3CCN(C)C3)cn2)ccc1[N+](=O)[O-]` [Example 203, 6-((6-(2-fluoro-6-methoxyphenyl)-5-nitropyridin-2-yl)amino)-4-((S)-3-hydroxypiperidin-1-yl)-N-((R)-1-methylpyrrolidin-3-yl)nicotinamide], with not above 10 nM. On to `COc1cccc(F)c1-c1nccc(Nc2cc(N3CC[C@@H](C)[C@H](N)C3)c(-c3cnn(C(F)F)c3)cn2)n1` [Example 204, N-(4-((3S,4R)-3-amino-4-methylpiperidin-1-yl)-5-(1-(difluoromethyl)-1H-pyrazol-4-yl)pyridin-2-yl)-2-(2-fluoro-6-methoxyphenyl)pyrimidin-4-amine hydrochloride], for which the IC50 is not above 10 nM. Regarding `COc1cccc(F)c1-c1nccc(Nc2cc(N3C[C@@H](C)C[C@H](N)C3)c(-c3cnn(C(F)F)c3)cn2)n1` [Example 205, N-(4-((3S,5S)-3-amino-5-methylpiperidin-1-yl)-5-(1-(difluoromethyl)-1H-pyrazol-4-yl)pyridin-2-yl)-2-(2-fluoro-6-methoxyphenyl)pyrimidin-4-amine hydrochloride], the IC50 was not above 10 nM.

Regarding `COc1cccc(F)c1-c1nccc(Nc2cc(N3CCC[C@](C)(N)C3)c(-c3cnn(C(F)F)c3)cn2)n1` [Example 206, (S)-N-(4-(3-amino-3-methylpiperidin-1-yl)-5-(1-(difluoromethyl)-1H-pyrazol-4-yl)pyridin-2-yl)-2-(2-fluoro-6-methoxyphenyl)pyrimidin-4-amine hydrochloride], the IC50 was not above 10 nM. Turning to `COc1cccc(F)c1-c1nccc(Nc2cc(N3CC[C@H](F)[C@H](N)C3)c(-c3cnn(C(F)F)c3)cn2)n1` [Example 207, N-(4-((3R,4S)-3-amino-4-fluoropiperidin-1-yl)-5-(1-(difluoromethyl)-1H-pyrazol-4-yl)pyridin-2-yl)-2-(2-fluoro-6-methoxyphenyl)pyrimidin-4-amine hydrochloride], the IC50 was not above 10 nM.

Take `COc1cccc(F)c1-c1nccc(Nc2cc(N3CC[C@@H](F)[C@H](N)C3)c(-c3cnn(C(F)F)c3)cn2)n1` [Example 208, N-(4-((3R,4R)-3-amino-4-fluoropiperidin-1-yl)-5-(1-(difluoromethyl)-1H-pyrazol-4-yl)pyridin-2-yl)-2-(2-fluoro-6-methoxyphenyl)pyrimidin-4-amine hydrochloride]: the half-maximal inhibitory concentration (IC50) was not above 10 nM.

For the compound `COc1cccc(F)c1-c1nccc(Nc2cc(N3CC[C@@H](O)[C@H](N)C3)c(-c3cnn(C(F)F)c3)cn2)n1` [Example 209, (3R,4R)-3-amino-1-(5-(1-(difluoromethyl)-1H-pyrazol-4-yl)-2-((2-(2-fluoro-6-methoxyphenyl)pyrimidin-4-yl)amino)pyridin-4-yl)piperidin-4-ol hydrochloride], the IC50 was not above 10 nM. In the case of `COc1cc(F)cc(F)c1-c1nccc(Nc2cc(N3C[C@@H](C)C[C@H](N)C3)c(-c3cnn(C(F)F)c3)cn2)n1` [Example 210, N-(4-((3S,5S)-3-amino-5-methylpiperidin-1-yl)-5-(1-(difluoromethyl)-1H-pyrazol-4-yl)pyridin-2-yl)-2-(2,4-difluoro-6-methoxyphenyl)pyrimidin-4-amine hydrochloride], the IC50 is not above 10 nM.

As to `COc1cc(F)cc(F)c1-c1nccc(Nc2cc(N3CC[C@@H](C)[C@H](N)C3)c(-c3cnn(C(F)F)c3)cn2)n1` [Example 211, N-(4-((3S,4R)-3-amino-4-methylpiperidin-1-yl)-5-(1-(difluoromethyl)-1H-pyrazol-4-yl)pyridin-2-yl)-2-(2,4-difluoro-6-methoxyphenyl)pyrimidin-4-amine hydrochloride], the IC50 is not above 10 nM.
